Measured values reported in patent US6602888B2, “Use of α1C specific compounds to treat benign prostatic hyperplasia” (Synaptic Pharmaceutical Corporation, priority 1992, dated 2003).
Read-outs that look alike come from different tables or passages of the source.

Biological target: T1, human α1B adrenergic receptor (Homo sapiens, UniProt P35368)
T1 sequence (P35368 1-520): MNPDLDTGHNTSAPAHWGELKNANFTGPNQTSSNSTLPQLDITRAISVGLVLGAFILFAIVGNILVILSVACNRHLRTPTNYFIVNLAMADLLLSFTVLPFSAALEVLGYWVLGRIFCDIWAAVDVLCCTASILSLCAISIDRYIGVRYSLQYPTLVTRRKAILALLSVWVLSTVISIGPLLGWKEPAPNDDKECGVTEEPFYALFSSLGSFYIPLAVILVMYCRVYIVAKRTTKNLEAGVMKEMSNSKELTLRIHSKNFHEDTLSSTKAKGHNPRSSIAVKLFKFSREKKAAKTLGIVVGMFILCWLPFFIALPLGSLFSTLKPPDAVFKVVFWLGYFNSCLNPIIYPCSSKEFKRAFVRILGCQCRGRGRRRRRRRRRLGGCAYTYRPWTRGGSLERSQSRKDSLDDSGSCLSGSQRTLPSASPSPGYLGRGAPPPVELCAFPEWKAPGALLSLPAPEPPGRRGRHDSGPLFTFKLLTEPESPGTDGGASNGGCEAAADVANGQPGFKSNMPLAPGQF
Experiment: Radioligand binding, [3H]prazosin, cloned human α1B adrenergic receptor

Molecule | Alpha-1 Adrenergic a1B (pK1) | Human Alpha-1 Adrenergic (pK1) a1B | Human Alpha-1 Adrenergic (pK1) a1B (Table 1, cloned human receptor) | Alpha-1 Adrenergic a1B (pK1) (Table 2, cloned human receptor) | Ki
4-fluoro-4-(8-fluoro-1,3,4,5-tetrahydro-2H-pyrido[4,3-b]indol-2-yl)butyrophenone hydrochloride [Compound A-30360, reference compound] | 7.86 | 7.86 |  |  | 
COc1ccccc1N1CCN(CCCNc2c(C)c(=O)n(C)c(=O)n2C)CC1 [5-Methyl-Urapidil, 5-methylurapidil, reference compound] | 6.77 | 6.77 |  |  | 
O=C(CCCN1CCC(NC(=O)c2ccccc2)CC1)c1ccc(Cl)cc1 [Compound 7] |  |  | 7.18 | 7.18 | 
O=C(CCCN1CCC(NC(=O)c2ccccc2)CC1)c1ccccc1 [Compound 9] |  |  | 6.76 | 6.76 | 
COc1ccc(CCNCC2CCc3ccccc3C2)cc1 (stereo not shown) [Compound 11, 2-[(4-Methoxyphenethyl)aminomethyl]-1,2,3,4-tetrahydronaphthalene] |  |  |  | 7.14 | 0.0724 µM
